Where two headings read alike, the source gives them in different places.
Assays:
[1] = Metabolic stability and intrinsic clearance in rat hepatocytes (with IVIVE); assay type: in vitro ADME; settings: Rat hepatocytes
Experimental: (§1) The metabolic stability was expressed as the percentage of parent remaining is calculated from the peak area ratio of NCE remaining after incubation (tx) compared to the time zero (t0) incubation. The percentage of parent test compound remaining at each time point was calculated by comparing the peak area ratio of test compound after incubation (tx) with peak area of time zero (t0) incubation. Similarly, half-life (t½) was calculated using following equation:
(§2) [formula] The intrinsic clearance (Clint) was calculated using the following equations:
(§3) [formula] Scaling factors to represent […] million cells/gm liver and liver/kg body wt.

Rat hepatocytes = experiment: as above; assay type: in vitro ADME; settings: Rat; for Predicted CLh: IVIVE from hepatocyte CLint; for Hepatocyte Clint: Table 6 (IVIVE)
Experimental: as §1, §2, §3

[2] = Pharmacokinetic study in mice; assay type: in vivo, CD1 mice; settings: for Cmax / Tmax: po
Experimental: Intravenous (i.v) and Oral formulations for pharmacokinetic (PK) studies was formulated in different vehicles and excipients to achieve the desirable solubility for intravenous and Oral routes of administration.
Appropriate amount of the test compound was weighed and dissolved in required volume of the vehicles, followed by vertexing for a few seconds to dissolve the compound. Then the solution (or) suspension was sonicated at room temperature for 5 minutes to obtain a visually clear solution and or homogenous suspension. All the formulations were prepared freshly at room temperature before dosing.
The rodent pharmacokinetic studies were carried out in male Sprague-Dawley (SD) rats (8-12 weeks of age, weighing 280±20 g at the time of dosing) and CD1 mice (8-12 weeks of age, weighing 30-35 g body weight at the time of dosing) to estimate the plasma clearance, volume of distribution and terminal half-life, area under curve (AUC) and peak plasma concentration (Cmax) and time of peak plasma concentration (Tmax) following intravenous and oral routes of administration. The detailed experimental design is described in the Table 8 below.
Rats were anaesthetized by Isoflurane anaesthesia. The jugular and femoral veins of rat were cannulated, and the study was performed 48 h post cannulation. At each time point about 100 μL, of rat blood was collected from the jugular vein into a labelled microfuge tube containing 200 mM K2EDTA solution (20 μL, per mL of blood) and equivalent volume of heparinized saline was replaced following sample collection. Similarly, 25 μL, of mice blood was collected from the saphenous vein into a labelled microfuge tube containing 200 mM K2EDTA solution
Serial blood sampling method was used for blood collection. Blood samples were collected at pre-dose, 0.25 h, 0.5, 1, 2, 4, 6, 8 and 24-hours post dose. The blood samples were processed to obtain the plasma samples within 30 min of scheduled sampling time. All plasma samples were stored −70° C. until bioanalysis.
Plasma samples were analysed for a fit-for purpose LC-MS/MS method with a lower limit of quantification. The pharmacokinetic parameters were calculated using the non-compartmental analysis tool of validated Phoenix® WinNonlin® software (Certara, USA version 8.4) with linear up and log down method for estimating AUC.
All animals in intravenous (IV bolus) group were under fed state and animals in oral groups were fasted overnight (min 12 hr) before dose administration and food was provided 4 h post dose administration. All animals were received water ad libitum during the study period. The mean (±SD) pharmacokinetic parameters of Example 13, Example 122b & Example 39 following IV bolus and Oral dose administration in Mice/Rat and Dog is provided in Table-9.

[3] = Metabolic stability and intrinsic clearance in dog hepatocytes (with IVIVE); assay type: in vitro ADME; settings: Dog hepatocytes
Experimental: as §1, §2, §3

Dog hepatocytes = experiment: as above; assay type: in vitro ADME; settings: Dog; for Predicted CLh: IVIVE from hepatocyte CLint; for Hepatocyte Clint: Table 6 (IVIVE)
Experimental: as §1, §2, §3

hERG potassium channel = target: T1, hERG potassium channel (Homo sapiens, UniProt Q12809); experiment: hERG inhibition assay, Qpatch HTX automated electrophysiology; assay type: cell-based; settings: CHO cell line stably expressing hERG; whole-cell patch clamp; room temperature
T1 construct: a Chinese Hamster Ovary cell line stably expressing the full-length hERG potassium channel; expressed in transfected cells; host or cells: Chinese Hamster Ovary cell line
Experimental: The representative compounds of formula I were tested for inhibition of the human ether a go-go related gene (hERG) K+ channel using Qpatch HTX automated electrophysiology. 6-Point concentration-response curves were generated using three-fold serial dilutions from a maximum final test concentration of […] and the results are presented in Table 3.
Compounds were solubilised to 100 mM in DMSO before dilution in HBPS to 100 μM. […] Electrophysiological recordings were made from a Chinese Hamster Ovary cell line stably expressing the full-length hERG potassium channel. Single cell ionic currents were measured in whole-cell patch clamp configuration at room temperature (21-23° C.) using the Qpatch HTX platform (Sophion). Intracellular solution contained (mM): 120 KF, 20 KCl, 10 EGTA, 10 HEPES and was buffered to pH 7.3. […] Cells were clamped at a holding potential of −80 mV. Cells were stepped to +20 mV for 2 s then −40 mV for 3 s before returning to the holding potential. This sweep was repeated 10 times at 10 s intervals. hERG currents were measured from the tail step and referenced to the holding current. Compounds were then incubated for 2 minutes prior to a second measurement of ion channel current using an identical pulse train.

[4] = Plasma protein binding, equilibrium dialysis, dog; assay type: in vitro ADME; settings: plasma (10% plasma, extrapolated to 100% plasma), Beagle plasma, 18 hours at 37° C.
Experimental: Protein binding is measured using the equilibrium dialysis technique. Compound is added to 10% plasma giving a concentration of 10 μM and dialysed with isotonic buffer for 18 hours at 37° C. The plasma and buffer solutions are analysed using generic LC UV/MS and the first apparent binding constant for the compound derived. The binding constant is then used to determine the % free in 100% plasma
The percentage of plasma bound/unbound fraction preparation was calculated as follows
[formula] [formula] where, • Tc=Total plasma concentration was determined by the calculated concentration on the plasma side of the chamber • Fc=[…] was determined by the calculated concentration on the buffer side of the chamber • To=Total compound concentration determined before analysis.

[5] = CD1, mouse, plasma, 30 mg/kg, p.o, 30 mg/kg, read-out: Cmax (head Co*/)
[6] = CD1, mouse, plasma, 30 mg/kg, p.o, 30 mg/kg, read-out: Tmax (head Tma)
[7] = CD1, mouse, plasma, iv, i.v, 15 mg/kg

T1 sequence (Q12809 whole entry): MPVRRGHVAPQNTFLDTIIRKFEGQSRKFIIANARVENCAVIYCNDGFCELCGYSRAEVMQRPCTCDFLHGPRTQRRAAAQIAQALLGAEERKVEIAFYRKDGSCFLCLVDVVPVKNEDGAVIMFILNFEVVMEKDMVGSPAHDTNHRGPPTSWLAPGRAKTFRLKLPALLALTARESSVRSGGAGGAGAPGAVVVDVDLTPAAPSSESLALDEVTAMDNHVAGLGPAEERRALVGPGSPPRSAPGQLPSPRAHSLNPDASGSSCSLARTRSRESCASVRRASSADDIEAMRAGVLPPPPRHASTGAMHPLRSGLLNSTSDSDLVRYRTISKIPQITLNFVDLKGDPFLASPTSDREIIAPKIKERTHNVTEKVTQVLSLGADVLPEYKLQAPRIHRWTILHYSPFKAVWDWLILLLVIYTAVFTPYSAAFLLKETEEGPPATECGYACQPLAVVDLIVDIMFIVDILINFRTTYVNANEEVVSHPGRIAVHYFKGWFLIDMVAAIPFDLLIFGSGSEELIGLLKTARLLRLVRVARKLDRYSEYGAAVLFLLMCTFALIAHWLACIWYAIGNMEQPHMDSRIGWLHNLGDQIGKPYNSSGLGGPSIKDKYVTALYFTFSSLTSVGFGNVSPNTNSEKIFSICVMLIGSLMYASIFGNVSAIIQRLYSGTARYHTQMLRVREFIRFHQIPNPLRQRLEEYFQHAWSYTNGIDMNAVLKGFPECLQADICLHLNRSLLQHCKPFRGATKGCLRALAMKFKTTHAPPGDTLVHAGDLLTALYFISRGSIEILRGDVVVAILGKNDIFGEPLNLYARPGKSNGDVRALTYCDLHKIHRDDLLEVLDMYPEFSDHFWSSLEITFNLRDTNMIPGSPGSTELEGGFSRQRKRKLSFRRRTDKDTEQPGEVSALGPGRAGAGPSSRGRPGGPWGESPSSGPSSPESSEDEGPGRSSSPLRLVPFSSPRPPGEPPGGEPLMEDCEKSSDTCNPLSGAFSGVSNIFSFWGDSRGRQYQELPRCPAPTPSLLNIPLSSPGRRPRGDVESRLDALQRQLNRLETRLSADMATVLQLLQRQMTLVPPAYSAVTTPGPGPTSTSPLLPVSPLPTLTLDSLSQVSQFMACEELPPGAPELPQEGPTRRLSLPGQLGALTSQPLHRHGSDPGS

SMILES	hepatocyte CLint at 0.5 μM [1] [µL/min/1e6 cells]	Predicted CLh (Rat hepatocytes) [mL/min/kg]	Hepatocyte Clint (Rat hepatocytes) [μl/min/10^6]	hepatocyte CLint at 0.5 μM [3] [µL/min/1e6 cells]	Predicted CLh (Dog hepatocytes) [mL/min/kg]	Hepatocyte Clint (Dog hepatocytes) [μl/min/10^6]	IC50 (hERG potassium channel) [µM]	fraction unbound at 18 h, 10 µM [4]	Cmax [2, 5] [ng/mL]	Tmax [2, 6] [min]	other results
CCc1c(C)nn2c(N)c(C#N)c(NCCc3ccn(C4COCC4CO)n3)nc12 (single isomer, unassigned; (-)) [Example 122b, (−)-7-amino-3-ethyl-5-((2-(1-(4-(hydroxymethyl)tetrahydrofuran-3-yl)-1H-pyrazol-3-yl)ethyl)amino)-2-methyl pyrazolo[1,5-a]pyrimidine-6-carbonitrile]	4.7	16	4.7	< 4.1	10	<4.1	> 100	0.15	–	–	AUC(0-t) ([2]; CD1, mouse, plasma, 100 mg/kg oral): 10500 ng·h/mL; Cmax ([2]; CD1, mouse, plasma, 100 mg/kg, 100 mg/kg oral, read-out: C. (Cmax)): 13800 ng/mL; Tmax ([2]; CD1, mouse, plasma, 100 mg/kg, 100 mg/kg oral, read-out: Tmax): 15 min; Cmax ([2]; CD1, mouse, plasma, 100 mg/kg, p.o, 100 mg/kg, read-out: Cmax (head Co*/)): 13800 ng/mL; Tmax ([2]; CD1, mouse, plasma, 100 mg/kg, p.o, 100 mg/kg, read-out: Tmax (head Tma)): 12 min
Cc1cccc(CCNc2nc3c(C)c(C)nn3c(N)c2C#N)n1 [Example 13, 7-amino-5-((2-(6-methylpyridin-2-yl)ethyl)amino)-2,3-dimethylpyrazolo[1,5-a]pyrimidine-6-carbonitrile]	34	41	34	9.5	17	9.5	> 100	0.09	236	12	–
CCc1c(C)nn2c(N)c(C#N)c(NCCc3ccn(C4(CO)CC4)n3)nc12 [Example 39, 7-amino-3-ethyl-5-((2-(1-(1-(hydroxymethyl)cyclopropyl)-1H-pyrazol-3-yl)ethyl)amino)-2-methylpyrazolo[1,5-a] pyrimidine-6-carbonitrile]	< 8.2	23	<8.2	10.8	18	10.8	> 100	0.156	3300	12	clearance [2, 7]: 58 ± 14 mL/min/kg; half-life [2, 7]: 54 min; Vd ([2]; CD1, mouse, plasma, iv, i.v, 15 mg/kg, read-out: Vss): 1 L/kg; bioavailability ([2]; CD1, mouse, plasma, oral 30 mg/kg vs IV bolus 15 mg/kg, read-out: % F (bioavailability)): 15%; Co (head Co*/) ([2]; i.v, 15 mg/kg): 2236 ng/m; Oral exposure in mice ([2]; oral, compared with Example 13): High oral exposure

— patent US12577247B2 (BUGWORKS RESEARCH, INC., priority 2021, dated 2026)
